# Article PMC4692446, “Compound K Production from Red Ginseng Extract by β-Glycosidase from Sulfolobus solfataricus Supplemented with α-L-Arabinofuranosidase from Caldicellulosiruptor saccharolyticus” (PLoS ONE, 2015)
# Molecular target: T1, SS-bgly (β-glycosidase from Sulfolobus solfataricus) (Saccharolobus solfataricus, UniProt P22498)
# T1 construct: gene lacS; full-length gene from genomic DNA in pET-24a, NdeI/BamHI, own stop codon, no tag; E. coli ER2566; heat-treated soluble enzyme (75°C)
# T1 sequence (P22498 1-489): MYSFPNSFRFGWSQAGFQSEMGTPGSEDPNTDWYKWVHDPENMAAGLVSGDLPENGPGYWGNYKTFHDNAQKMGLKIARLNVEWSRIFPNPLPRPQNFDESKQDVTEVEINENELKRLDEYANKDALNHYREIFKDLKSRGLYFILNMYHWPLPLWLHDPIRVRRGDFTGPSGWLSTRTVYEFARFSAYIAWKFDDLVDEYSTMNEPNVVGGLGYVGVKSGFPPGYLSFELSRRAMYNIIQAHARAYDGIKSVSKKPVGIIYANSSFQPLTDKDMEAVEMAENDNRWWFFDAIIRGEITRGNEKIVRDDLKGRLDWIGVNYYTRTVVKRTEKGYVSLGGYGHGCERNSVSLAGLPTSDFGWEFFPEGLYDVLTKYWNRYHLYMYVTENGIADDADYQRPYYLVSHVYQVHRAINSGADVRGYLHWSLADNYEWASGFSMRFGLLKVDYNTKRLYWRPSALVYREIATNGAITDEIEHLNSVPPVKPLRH
# Assay: TLC of reaction products
# Type: biochemical
# Settings: 80°C, pH 6.0 citrate/phosphate; SS-bgly alone; product C-Mc
smiles,measurement,value
"CC(C)=CCC[C@](C)(O[C@@H]1O[C@H](CO[C@@H]2O[C@@H](CO)[C@H](O)[C@H]2O)[C@@H](O)[C@H](O)[C@H]1O)[C@H]1CC[C@]2(C)[C@@H]1[C@H](O)C[C@@H]1[C@@]3(C)CC[C@H](O[C@@H]4O[C@H](CO)[C@@H](O)[C@H](O)[C@H]4O[C@@H]4O[C@H](CO)[C@@H](O)[C@H](O)[C@H]4O)C(C)(C)[C@@H]3CC[C@]12C [Rc, ginsenoside Rc]",TLC of reaction products,whereas only C-Mc was obtained by SS-bgly alone
